# Laboratory results taken from patent US20010041737A1, “Enhancing the toxicity of warfarin in rodents” (priority 1998, published 2001).
# Structures can show the parent of a compound that is named as a salt.
# Tested on: warfarin-resistant Norway rats from Chicago, Illinois
# Assay: Example II: feeding test of 50 ppm warfarin bait with or without antibiotic
# Assay type: in vivo
# Details: conclusion in words from the Example II mortality figures
structure (smiles),measurement,value
CN(C)[C@@H]1C(O)=C(C(N)=O)C(=O)[C@@]2(O)C(O)=C3C(=O)c4c(O)cccc4[C@@](C)(O)[C@H]3C[C@@H]12 [tetracycline hydrochloride],Effect of the antibiotic on the toxicity of warfarin,appears to enhance the toxicity of warfarin
